System: MV-4-11 cells
Assay: Gene expression microarray analysis (Affymetrix PrimeView) and GSEA
Type: cell-based, human
Parameters: RFU PODN (11730768_x_at) / Fold change /veh PODN (11730768_x_at) / RFU LINC00158 (11744669_a_at) / Fold change /veh LINC00158 (11744669_a_at) / RFU DUSP10 (11751237_a_at) / Fold change /veh DUSP10 (11751237_a_at) / RFU ID3 (11757404_x_at) / Fold change /veh ID3 (11757404_x_at) / RFU PLEKHG5 (11737974_s_at) / Fold change /veh PLEKHG5 (11737974_s_at) / RFU LRRC4B (11730491_at) / Fold change /veh LRRC4B (11730491_at) / RFU GIMAP4 (11747438_a_at) / Fold change /veh GIMAP4 (11747438_a_at) / RFU KRT8 (11758183_x_at) / Fold change /veh KRT8 (11758183_x_at) / RFU CNN1 (11734310_a_at) / Fold change /veh CNN1 (11734310_a_at) / RFU VPS37D (11726825_at) / Fold change /veh VPS37D (11726825_at) / RFU C10orf10 (11716522_x_at) / Fold change /veh C10orf10 (11716522_x_at) / RFU KIR2DL2 /// KIR2DL4 /// KIR2DL5A /// KIR2DL5B /// KIR2DS1 /// KIR2DS2 /// KIR2DS3 /// KIR2DS4 /// KIR3DL3 /// KIR3DL3 /// KIR3DS1 (11738374_at) / Fold change /veh KIR2DL2 /// KIR2DL4 /// KIR2DL5A /// KIR2DL5B /// KIR2DS1 /// KIR2DS2 /// KIR2DS3 /// KIR2DS4 /// KIR3DL3 /// KIR3DL3 /// KIR3DS1 (11738374_at) / RFU C1QL1 (11718748_at) / Fold change /veh C1QL1 (11718748_at) / RFU TMPRSS4 (11747572_a_at) / Fold change /veh TMPRSS4 (11747572_a_at) / RFU HAMP (11756126_x_at) / Fold change /veh HAMP (11756126_x_at) / RFU RNFT2 (11725882_a_at) / Fold change /veh RNFT2 (11725882_a_at) / RFU NR4A2 (11747474_a_at) / Fold change /veh NR4A2 (11747474_a_at) / RFU ABCC12 (11746883_a_at) / Fold change /veh ABCC12 (11746883_a_at) / RFU TMEM136 (11760407_x_at) / Fold change /veh TMEM136 (11760407_x_at) / RFU CLDN22 /// WWC2 (11732394_at) / Fold change /veh CLDN22 /// WWC2 (11732394_at) / RFU HLA-DPB1 (11760878_x_at) / Fold change /veh HLA-DPB1 (11760878_x_at) / RFU SPINT1 (11716480_a_at) / Fold change /veh SPINT1 (11716480_a_at) / RFU GAP43 (11754022_s_at) / Fold change /veh GAP43 (11754022_s_at) / RFU A4GNT (11735810_at) / Fold change /veh A4GNT (11735810_at) / RFU PRB3 (11715151_x_at) / Fold change /veh PRB3 (11715151_x_at) / RFU TUBB4B (11761932_at) / Fold change /veh TUBB4B (11761932_at) / RFU CAPN14 (11732068_a_at) / Fold change /veh CAPN14 (11732068_a_at) / RFU TMCC2 (11721928_a_at) / Fold change /veh TMCC2 (11721928_a_at) / RFU IRGQ (11745062_a_at) / Fold change /veh IRGQ (11745062_a_at) / RFU FAM174B (11720279_a_at) / Fold change /veh FAM174B (11720279_a_at) / RFU TMPRSS4 (11748680_a_at) / Fold change /veh TMPRSS4 (11748680_a_at) / RFU FAM212B (11763350_a_at) / Fold change /veh FAM212B (11763350_a_at) / RFU PLEKHG5 (11743358_a_at) / Fold change /veh PLEKHG5 (11743358_a_at) / RFU ZSCAN30 (11745921_a_at) / Fold change /veh ZSCAN30 (11745921_a_at) / RFU CMKLR1 (11741424_a_at) / Fold change /veh CMKLR1 (11741424_a_at) / RFU LOC101060620 /// MAPK8IP1 (11723275_at) / Fold change /veh LOC101060620 /// MAPK8IP1 (11723275_at) / RFU SPTSSB (11747773_x_at) / Fold change /veh SPTSSB (11747773_x_at) / RFU PRSS12 (11739890_at) / Fold change /veh PRSS12 (11739890_at) / RFU BIN1 (11741810_x_at) / Fold change /veh BIN1 (11741810_x_at) / RFU WNT11 (11732464_a_at) / Fold change /veh WNT11 (11732464_a_at) / RFU C10orf10 (11716521_a_at) / Fold change /veh C10orf10 (11716521_a_at) / RFU C5orf56 (11738089_at) / Fold change /veh C5orf56 (11738089_at) / RFU CYB561 (11721691_x_at) / Fold change /veh CYB561 (11721691_x_at) / RFU ANKRD19P (11752326_a_at) / Fold change /veh ANKRD19P (11752326_a_at) / RFU OR2T12 /// OR2T33 /// OR2T8 (11738714_s_at) / Fold change /veh OR2T12 /// OR2T33 /// OR2T8 (11738714_s_at) / RFU VCAN (11748164_a_at) / Fold change /veh VCAN (11748164_a_at) / RFU JSRP1 (11732532_at) / Fold change /veh JSRP1 (11732532_at) / RFU KRTAP10-11 (11738290_x_at) / Fold change /veh KRTAP10-11 (11738290_x_at) / RFU MYO3A (11730013_a_at) / Fold change /veh MYO3A (11730013_a_at) / RFU EBF3 (11725865_a_at) / Fold change /veh EBF3 (11725865_a_at) / RFU CAMK2N1 (11719241_x_at) / Fold change /veh CAMK2N1 (11719241_x_at) / RFU C5orf56 (11738088_a_at) / Fold change /veh C5orf56 (11738088_a_at) / RFU OLFML3 (11715873_a_at) / Fold change /veh OLFML3 (11715873_a_at) / RFU LOC100653217 /// NTM (11731650_a_at) / Fold change /veh LOC100653217 /// NTM (11731650_a_at) / RFU MAPK11 (11762145_a_at) / Fold change /veh MAPK11 (11762145_a_at) / RFU FIZ1 (11724087_x_at) / Fold change /veh FIZ1 (11724087_x_at) / RFU OASL (11726364_x_at) / Fold change /veh OASL (11726364_x_at) / RFU SOX15 (11748057_x_at) / Fold change /veh SOX15 (11748057_x_at) / RFU CD79A (11719716_a_at) / Fold change /veh CD79A (11719716_a_at) / RFU HIST1H1D (11736915_at) / Fold change /veh HIST1H1D (11736915_at) / RFU CASKIN2 (11723855_a_at) / Fold change /veh CASKIN2 (11723855_a_at) / RFU LOC730098 (11760151_x_at) / Fold change /veh LOC730098 (11760151_x_at) / RFU OR4N2 (11742367_at) / Fold change /veh OR4N2 (11742367_at) / RFU PRRT2 (11749266_a_at) / Fold change /veh PRRT2 (11749266_a_at) / RFU SNX32 (11753110_a_at) / Fold change /veh SNX32 (11753110_a_at) / RFU CDHR5 (11726645_a_at) / Fold change /veh CDHR5 (11726645_a_at) / RFU RCAN1 (11760418_a_at) / Fold change /veh RCAN1 (11760418_a_at) / RFU FAM167A (11723789_a_at) / Fold change /veh FAM167A (11723789_a_at) / RFU FAM26E (11764081_at) / Fold change /veh FAM26E (11764081_at) / RFU ISYNA1 (11749810_s_at) / Fold change /veh ISYNA1 (11749810_s_at) / RFU ACY1 (11761880_at) / Fold change /veh ACY1 (11761880_at) / RFU 11764098_at / Fold change /veh 11764098_at / RFU SAMD14 (11745864_x_at) / Fold change /veh SAMD14 (11745864_x_at) / RFU NPB (11741838_a_at) / Fold change /veh NPB (11741838_a_at) / RFU TMPRSS6 (11731388_a_at) / Fold change /veh TMPRSS6 (11731388_a_at) / RFU KRTAP10-2 (11738614_at) / Fold change /veh KRTAP10-2 (11738614_at) / RFU ARHGAP8 /// PRR5-ARHGAP8 (11727945_x_at) / Fold change /veh ARHGAP8 /// PRR5-ARHGAP8 (11727945_x_at) / RFU KRTAP5-7 /// NADSYN1 (11734609_at) / Fold change /veh KRTAP5-7 /// NADSYN1 (11734609_at) / RFU RASL12 (11751679_a_at) / Fold change /veh RASL12 (11751679_a_at) / RFU CDKN2B (11736163_a_at) / Fold change /veh CDKN2B (11736163_a_at) / RFU PRF1 (11729649_at) / Fold change /veh PRF1 (11729649_at) / RFU, ZNF638 /// ZNF638-IT1 / Fold change vs veh, ZNF638 /// ZNF638-IT1 / RFU, PANK3 / Fold change vs veh, PANK3 / RFU, SH3YL1 / Fold change vs veh, SH3YL1 / RFU, ZEB2 / Fold change vs veh, ZEB2 / RFU, NRIP1 / Fold change vs veh, NRIP1 / RFU, PTTG1IP / Fold change vs veh, PTTG1IP / RFU, CAPN2 / Fold change vs veh, CAPN2 / RFU, MED14 / Fold change vs veh, MED14 / RFU, SNORA58 / Fold change vs veh, SNORA58 / RFU, C1orf63 / Fold change vs veh, C1orf63 / RFU, LRRFIP1 / Fold change vs veh, LRRFIP1 / RFU, NDUFAF7 / Fold change vs veh, NDUFAF7 / RFU, SLC12A2 / Fold change vs veh, SLC12A2 / RFU, IBTK / Fold change vs veh, IBTK / RFU, ESF1 / Fold change vs veh, ESF1 / Fold change vs veh, TMEM50B / RFU, TAOK1 / Fold change vs veh, TAOK1 / RFU, ACBD3 / Fold change vs veh, ACBD3 / RFU, TMA16 / Fold change vs veh, TMA16 / RFU, RWDD3 / Fold change vs veh, RWDD3 / RFU, BCAT1 / Fold change vs veh, BCAT1 / RFU, EDEM3 / Fold change vs veh, EDEM3 / RFU, TMEM33 / Fold change vs veh, TMEM33 / RFU, WDR75 / Fold change vs veh, WDR75 / RFU, AHCTF1 / Fold change vs veh, AHCTF1 / RFU, TFRC / Fold change vs veh, TFRC / RFU, ZDHHC17 / Fold change vs veh, ZDHHC17 / RFU, NOM1 / Fold change vs veh, NOM1 / RFU, ARL8B / Fold change vs veh, ARL8B / RFU, ZBTB11 / Fold change vs veh, ZBTB11 / RFU, TAMM41 / Fold change vs veh, TAMM41 / RFU, KIAA1704 /// LOC100996395 / Fold change vs veh, KIAA1704 /// LOC100996395 / RFU, ING1 / Fold change vs veh, ING1 / RFU, TRMT61B / Fold change vs veh, TRMT61B / RFU, FUBP3 / Fold change vs veh, FUBP3 / RFU, TP53 / Fold change vs veh, TP53 / RFU, TNKS2 / Fold change vs veh, TNKS2 / RFU, ZFP14 / Fold change vs veh, ZFP14 / RFU, ACTR2 / Fold change vs veh, ACTR2 / RFU, PPP3R1 / Fold change vs veh, PPP3R1 / RFU, PIK3R1 / Fold change vs veh, PIK3R1 / RFU, HNRNPA1 / Fold change vs veh, HNRNPA1 / RFU, RNF170 / Fold change vs veh, RNF170 / RFU, ZNF28 / Fold change vs veh, ZNF28 / RFU, RNGTT / Fold change vs veh, RNGTT / RFU, OGT / Fold change vs veh, OGT / RFU, BRD1 / Fold change vs veh, BRD1 / RFU, MARS / Fold change vs veh, MARS / RFU, ZNF655 / Fold change vs veh, ZNF655 / RFU, FAHD1 / Fold change vs veh, FAHD1 / RFU, BDP1 / Fold change vs veh, BDP1 / RFU, LRRCC1 / Fold change vs veh, LRRCC1 / RFU, ARID1A / Fold change vs veh, ARID1A / RFU, ZNF146 / Fold change vs veh, ZNF146 / RFU, ZNF330 / Fold change vs veh, ZNF330 / RFU, GPN3 / Fold change vs veh, GPN3 / RFU, C9orf123 / Fold change vs veh, C9orf123 / RFU, N4BP2L2 / Fold change vs veh, N4BP2L2 / RFU, ARFIP1 / Fold change vs veh, ARFIP1 / RFU, FAM179B / Fold change vs veh, FAM179B / RFU, BCL10 / Fold change vs veh, BCL10 / RFU, UHRF1BP1L / Fold change vs veh, UHRF1BP1L / RFU, BET1 / Fold change vs veh, BET1 / RFU, CNOT2 / Fold change vs veh, CNOT2 / RFU, ZNF268 / Fold change vs veh, ZNF268 / Fold change vs veh, ZNF507 / RFU, DGCR2 / Fold change vs veh, DGCR2 / RFU, WDSUB1 / Fold change vs veh, WDSUB1 / Fold change vs veh, HSP90B1 /// MIR3652 / RFU, ADSS / Fold change vs veh, ADSS / RFU, GK / Fold change vs veh, GK / RFU, ZNF148 / Fold change vs veh, ZNF148 / RFU, TAF9 / Fold change vs veh, TAF9 / RFU, SLC1A5 / Fold change vs veh, SLC1A5 / RFU, SLMO2 / Fold change vs veh, SLMO2 / RFU, ABCC4 / Fold change vs veh, ABCC4 / RFU, LOC101060439 /// RAP1B / Fold change vs veh, LOC101060439 /// RAP1B / RFU, RFX7 / Fold change vs veh, RFX7 / RFU, GTPBP10 / Fold change vs veh, GTPBP10 / RFU, CNEP1R1 / Fold change vs veh, CNEP1R1 / RFU, BIVM-ERCC5 /// ERCC5 / Fold change vs veh, BIVM-ERCC5 /// ERCC5 / RFU, ILF3 / Fold change vs veh, ILF3 / RFU 11762660_at / Fold change /veh 11762660_at / RFU VCAN (11757783_s_at) / Fold change /veh VCAN (11757783_s_at) / RFU DDX43 (11728927_at) / Fold change /veh DDX43 (11728927_at) / RFU KRT8 (11758188_x_at) / Fold change /veh KRT8 (11758188_x_at) / RFU NKD1 (11759106_at) / Fold change /veh NKD1 (11759106_at) / RFU SRD5A1 (11742802_a_at) / Fold change /veh SRD5A1 (11742802_a_at) / RFU TPSAB1 /// TPSB2 (11721975_s_at) / Fold change /veh TPSAB1 /// TPSB2 (11721975_s_at) / RFU GSTM3 (11746129_a_at) / Fold change /veh GSTM3 (11746129_a_at) / RFU IL23R (11737362_x_at) / Fold change /veh IL23R (11737362_x_at) / RFU TMEM51 (11727254_a_at) / Fold change /veh TMEM51 (11727254_a_at) / RFU PIWIL2 (11732686_x_at) / Fold change /veh PIWIL2 (11732686_x_at) / RFU ORM1 (11744905_x_at) / Fold change /veh ORM1 (11744905_x_at) / RFU CCDC152 (11743942_at) / Fold change /veh CCDC152 (11743942_at) / RFU ECM1 (11717891_a_at) / Fold change /veh ECM1 (11717891_a_at) / RFU IL23R (11748794_a_at) / Fold change /veh IL23R (11748794_a_at) / RFU TNFAIP8L3 (11732012_x_at) / Fold change /veh TNFAIP8L3 (11732012_x_at) / RFU MBOAT4 (11741988_at) / Fold change /veh MBOAT4 (11741988_at) / RFU 11764193_at / Fold change /veh 11764193_at / RFU TMEM53 (11763286_at) / Fold change /veh TMEM53 (11763286_at) / RFU MAGEB2 (11727129_at) / Fold change /veh MAGEB2 (11727129_at) / RFU TMEM200A (11744735_a_at) / Fold change /veh TMEM200A (11744735_a_at) / RFU CCDC152 (11751479_a_at) / Fold change /veh CCDC152 (11751479_a_at) / RFU FAM211A (11726209_a_at) / Fold change /veh FAM211A (11726209_a_at) / RFU RGS16 (11746705_a_at) / Fold change /veh RGS16 (11746705_a_at) / RFU VCAN (11755009_s_at) / Fold change /veh VCAN (11755009_s_at) / RFU RHOB (11743442_s_at) / Fold change /veh RHOB (11743442_s_at) / RFU RGS16 (11720943_a_at) / Fold change /veh RGS16 (11720943_a_at) / RFU RGS16 (11720944_at) / Fold change /veh RGS16 (11720944_at) / RFU, VPS4B / Fold change vs veh, VPS4B / RFU, CREB1 / Fold change vs veh, CREB1 / RFU, DNAJC13 / Fold change vs veh, DNAJC13 / RFU, GNAQ / Fold change vs veh, GNAQ / RFU, CDK5R1 / Fold change vs veh, CDK5R1 / RFU, ZRANB3 / Fold change vs veh, ZRANB3 / RFU, CUL4A / Fold change vs veh, CUL4A / RFU, CCNY / Fold change vs veh, CCNY / RFU, UFL1 / Fold change vs veh, UFL1 / RFU, COG3 / Fold change vs veh, COG3 / RFU, DIAPH2 / Fold change vs veh, DIAPH2 / RFU, SKA2 / Fold change vs veh, SKA2 / RFU, AFF3 / Fold change vs veh, AFF3 / RFU, LMF1 / Fold change vs veh, LMF1 / RFU, IPO11 / Fold change vs veh, IPO11 / RFU, DFFB / Fold change vs veh, DFFB / RFU, FOXP1 / Fold change vs veh, FOXP1 / RFU, CARD8 / Fold change vs veh, CARD8 / RFU, STRN3 / Fold change vs veh, STRN3 / RFU, ADK / Fold change vs veh, ADK / RFU, RASSF2 / Fold change vs veh, RASSF2 / RFU, WIPF1 / Fold change vs veh, WIPF1 / RFU, LARP1B / Fold change vs veh, LARP1B / RFU, RASA1 / Fold change vs veh, RASA1 / RFU, RB1 / Fold change vs veh, RB1 / RFU, PPFIA1 / Fold change vs veh, PPFIA1 / RFU, MAT2A / Fold change vs veh, MAT2A / RFU, CCT5 / Fold change vs veh, CCT5 / RFU, WDR92 / Fold change vs veh, WDR92 / RFU, CUX1 / Fold change vs veh, CUX1 / RFU, TTC7A / Fold change vs veh, TTC7A / RFU, TMEM135 / Fold change vs veh, TMEM135 / RFU, DEPTOR / Fold change vs veh, DEPTOR / RFU, CPM / Fold change vs veh, CPM / RFU, DNAJB6 / Fold change vs veh, DNAJB6 / RFU, CACNA2D3 / Fold change vs veh, CACNA2D3 / RFU, DTX4 / Fold change vs veh, DTX4 / RFU, TFCP2 / Fold change vs veh, TFCP2 / RFU, GMCL1 /// GMCL1P1 / Fold change vs veh, GMCL1 /// GMCL1P1 / RFU, AEBP2 / Fold change vs veh, AEBP2 / RFU, SNHG1 /// SNORD22 /// SNORD25 /// SNORD26 /// SNORD27 /// SNORD28 /// SNORD29 /// SNORD31 / Fold change vs veh, SNHG1 /// SNORD22 /// SNORD25 /// SNORD26 /// SNORD27 /// SNORD28 /// SNORD29 /// SNORD31 / Fold change (Aza/veh), C12orf56 (ProbeSet 11735607_a_at) / Fold change (ACY-1035/veh), C12orf56 (ProbeSet 11735607_a_at) / Fold change (Aza/veh), FGFR1OP (ProbeSet 11751329_s_at) / Fold change (ACY-1035/veh), FGFR1OP (ProbeSet 11751329_s_at) / Fold change (Aza/veh), VPS36 (ProbeSet 11739960_a_at) / Fold change (ACY-1035/veh), VPS36 (ProbeSet 11739960_a_at) / RFU SYPL1 (11715823_x_at) / Fold change /veh SYPL1 (11715823_x_at) / RFU IGFBP7 (11715501_s_at) / Fold change /veh IGFBP7 (11715501_s_at) / RFU REEP3 (11722064_at) / Fold change /veh REEP3 (11722064_at) / RFU IGLL1 (11728026_x_at) / Fold change /veh IGLL1 (11728026_x_at): dose or concentration left out as unconfirmed
Conditions: MV-4-11 cells, 48 hours

Nc1ccc(-c2cccs2)cc1NC(=O)c1ccc2c(c1)cc(C1CC1)n2CCN1CCOCC1 [ACY-1035]
RFU FIZ1 (11724087_x_at): 31.13 RFU

Source: article PMC5218480 (PLoS ONE, 2017)
